In the CheMixHub ionic liquid set:
± gives the uncertainty stated by the source.

Experiment: xn = mol fraction of the nth substance listed
Conditions: 100 kPa

CC[N+](CC)(CC)CC.F[B-](F)(F)F + CC#N
Conditions	electrical conductivity [S/m]	viscosity [mPa·s]
293.15 K, x1 = 0.004202	–	0.42 ± 0.009
293.15 K, x1 = 0.008244	–	0.438 ± 0.009
293.15 K, x1 = 0.01214	–	0.455 ± 0.01
293.15 K, x1 = 0.0162	–	0.474 ± 0.01
293.15 K, x1 = 0.02	2.88 ± 0.058	–
293.15 K, x1 = 0.0201	–	0.484 ± 0.01
293.15 K, x1 = 0.02405	–	0.506 ± 0.011
293.15 K, x1 = 0.02791	–	0.531 ± 0.011
293.15 K, x1 = 0.0301	3.6 ± 0.072	–
293.15 K, x1 = 0.03183	–	0.55 ± 0.012
293.15 K, x1 = 0.03568	–	0.573 ± 0.012
293.15 K, x1 = 0.03943	–	0.593 ± 0.013
293.15 K, x1 = 0.0499	4.6 ± 0.092	–
293.15 K, x1 = 0.0698	5.04 ± 0.1	–
293.15 K, x1 = 0.08	5.32 ± 0.11	–
293.15 K, x1 = 0.1	5.56 ± 0.11	–
293.15 K, x1 = 0.1101	5.58 ± 0.11	–
298.15 K, x1 = 0.004202	–	0.401 ± 0.009
298.15 K, x1 = 0.008244	–	0.417 ± 0.009
298.15 K, x1 = 0.01214	–	0.435 ± 0.009
298.15 K, x1 = 0.0162	–	0.452 ± 0.01
298.15 K, x1 = 0.02	2.99 ± 0.06	–
298.15 K, x1 = 0.0201	–	0.46 ± 0.01
298.15 K, x1 = 0.02405	–	0.48 ± 0.01
298.15 K, x1 = 0.02791	–	0.507 ± 0.011
298.15 K, x1 = 0.0301	3.65 ± 0.073	–
298.15 K, x1 = 0.03183	–	0.525 ± 0.011
298.15 K, x1 = 0.03568	–	0.546 ± 0.012
298.15 K, x1 = 0.03943	–	0.566 ± 0.012
298.15 K, x1 = 0.0499	4.78 ± 0.096	–
298.15 K, x1 = 0.0698	5.24 ± 0.1	–
298.15 K, x1 = 0.08	5.59 ± 0.11	–
298.15 K, x1 = 0.1	5.85 ± 0.12	–
298.15 K, x1 = 0.1101	5.88 ± 0.12	–
303.15 K, x1 = 0.004202	–	0.383 ± 0.008
303.15 K, x1 = 0.008244	–	0.399 ± 0.009
303.15 K, x1 = 0.01214	–	0.415 ± 0.009
303.15 K, x1 = 0.0162	–	0.432 ± 0.009
303.15 K, x1 = 0.02	3.11 ± 0.062	–
303.15 K, x1 = 0.0201	–	0.438 ± 0.009
303.15 K, x1 = 0.02405	–	0.457 ± 0.01
303.15 K, x1 = 0.02791	–	0.484 ± 0.01
303.15 K, x1 = 0.0301	3.74 ± 0.075	–
303.15 K, x1 = 0.03183	–	0.501 ± 0.011
303.15 K, x1 = 0.03568	–	0.521 ± 0.011
303.15 K, x1 = 0.03943	–	0.541 ± 0.012
303.15 K, x1 = 0.0499	4.98 ± 0.1	–
303.15 K, x1 = 0.0698	5.48 ± 0.11	–
303.15 K, x1 = 0.08	5.85 ± 0.12	–
303.15 K, x1 = 0.1	6.14 ± 0.12	–
303.15 K, x1 = 0.1101	6.18 ± 0.12	–
308.15 K, x1 = 0.004202	–	0.367 ± 0.008
308.15 K, x1 = 0.008244	–	0.381 ± 0.008
308.15 K, x1 = 0.01214	–	0.397 ± 0.008
308.15 K, x1 = 0.0162	–	0.413 ± 0.009
308.15 K, x1 = 0.02	3.22 ± 0.064	–
308.15 K, x1 = 0.0201	–	0.419 ± 0.009
308.15 K, x1 = 0.02405	–	0.436 ± 0.009
308.15 K, x1 = 0.02791	–	0.463 ± 0.01
308.15 K, x1 = 0.0301	3.88 ± 0.078	–
308.15 K, x1 = 0.03183	–	0.478 ± 0.01
308.15 K, x1 = 0.03568	–	0.497 ± 0.011
308.15 K, x1 = 0.03943	–	0.517 ± 0.011
308.15 K, x1 = 0.0499	5.18 ± 0.1	–
308.15 K, x1 = 0.0698	5.71 ± 0.11	–
308.15 K, x1 = 0.08	6.11 ± 0.12	–
308.15 K, x1 = 0.1	6.43 ± 0.13	–
308.15 K, x1 = 0.1101	6.48 ± 0.13	–
313.15 K, x1 = 0.004202	–	0.352 ± 0.008
313.15 K, x1 = 0.008244	–	0.365 ± 0.008
313.15 K, x1 = 0.01214	–	0.381 ± 0.008
313.15 K, x1 = 0.0162	–	0.396 ± 0.008
313.15 K, x1 = 0.02	3.33 ± 0.067	–
313.15 K, x1 = 0.0201	–	0.4 ± 0.009
313.15 K, x1 = 0.02405	–	0.417 ± 0.009
313.15 K, x1 = 0.02791	–	0.442 ± 0.009
313.15 K, x1 = 0.0301	4.03 ± 0.081	–
313.15 K, x1 = 0.03183	–	0.457 ± 0.01
313.15 K, x1 = 0.03568	–	0.474 ± 0.01
313.15 K, x1 = 0.03943	–	0.494 ± 0.011
313.15 K, x1 = 0.0499	5.38 ± 0.11	–
313.15 K, x1 = 0.0698	5.95 ± 0.12	–
313.15 K, x1 = 0.08	6.36 ± 0.13	–
313.15 K, x1 = 0.1	6.72 ± 0.14	–
313.15 K, x1 = 0.1101	6.78 ± 0.14	–
318.15 K, x1 = 0.004202	–	0.338 ± 0.007
318.15 K, x1 = 0.008244	–	0.35 ± 0.007
318.15 K, x1 = 0.01214	–	0.365 ± 0.008
318.15 K, x1 = 0.0162	–	0.38 ± 0.008
318.15 K, x1 = 0.02	3.44 ± 0.069	–
318.15 K, x1 = 0.0201	–	0.383 ± 0.008
318.15 K, x1 = 0.02405	–	0.399 ± 0.009
318.15 K, x1 = 0.02791	–	0.423 ± 0.009
318.15 K, x1 = 0.0301	4.17 ± 0.084	–
318.15 K, x1 = 0.03183	–	0.437 ± 0.009
318.15 K, x1 = 0.03568	–	0.454 ± 0.01
318.15 K, x1 = 0.03943	–	0.474 ± 0.01
318.15 K, x1 = 0.0499	5.58 ± 0.11	–
318.15 K, x1 = 0.0698	6.18 ± 0.12	–
318.15 K, x1 = 0.08	6.59 ± 0.13	–
318.15 K, x1 = 0.1	7.01 ± 0.14	–
318.15 K, x1 = 0.1101	7.08 ± 0.14	–
323.15 K, x1 = 0.004202	–	0.326 ± 0.007
323.15 K, x1 = 0.008244	–	0.337 ± 0.007
323.15 K, x1 = 0.01214	–	0.35 ± 0.007
323.15 K, x1 = 0.0162	–	0.364 ± 0.008
323.15 K, x1 = 0.02	3.54 ± 0.071	–
323.15 K, x1 = 0.0201	–	0.367 ± 0.008
323.15 K, x1 = 0.02405	–	0.383 ± 0.008
323.15 K, x1 = 0.02791	–	0.405 ± 0.009
323.15 K, x1 = 0.0301	4.32 ± 0.086	–
323.15 K, x1 = 0.03183	–	0.418 ± 0.009
323.15 K, x1 = 0.03568	–	0.435 ± 0.009
323.15 K, x1 = 0.03943	–	0.455 ± 0.01
323.15 K, x1 = 0.0499	5.77 ± 0.12	–
323.15 K, x1 = 0.0698	6.41 ± 0.13	–
323.15 K, x1 = 0.08	6.84 ± 0.14	–
323.15 K, x1 = 0.1	7.27 ± 0.15	–
323.15 K, x1 = 0.1101	7.38 ± 0.15	–
328.15 K, x1 = 0.02	3.65 ± 0.073	–
328.15 K, x1 = 0.0301	4.46 ± 0.089	–
328.15 K, x1 = 0.0499	5.96 ± 0.12	–
328.15 K, x1 = 0.0698	6.63 ± 0.13	–
328.15 K, x1 = 0.08	7.08 ± 0.14	–
328.15 K, x1 = 0.1	7.56 ± 0.15	–
328.15 K, x1 = 0.1101	7.68 ± 0.15	–
333.15 K, x1 = 0.02	3.75 ± 0.075	–
333.15 K, x1 = 0.0301	4.59 ± 0.092	–
333.15 K, x1 = 0.0499	6.15 ± 0.12	–
333.15 K, x1 = 0.0698	6.86 ± 0.14	–
333.15 K, x1 = 0.08	7.33 ± 0.15	–
333.15 K, x1 = 0.1	7.83 ± 0.16	–
333.15 K, x1 = 0.1101	8.01 ± 0.16	–
338.15 K, x1 = 0.02	3.85 ± 0.077	–
338.15 K, x1 = 0.0301	4.73 ± 0.095	–
338.15 K, x1 = 0.0499	6.34 ± 0.13	–
338.15 K, x1 = 0.0698	7.08 ± 0.14	–
338.15 K, x1 = 0.08	7.57 ± 0.15	–
338.15 K, x1 = 0.1	8.15 ± 0.16	–
338.15 K, x1 = 0.1101	8.28 ± 0.17	–
343.15 K, x1 = 0.02	3.95 ± 0.079	–
343.15 K, x1 = 0.0301	4.86 ± 0.097	–
343.15 K, x1 = 0.0499	6.52 ± 0.13	–
343.15 K, x1 = 0.0698	7.29 ± 0.15	–
343.15 K, x1 = 0.08	7.8 ± 0.16	–
343.15 K, x1 = 0.1	8.43 ± 0.17	–
343.15 K, x1 = 0.1101	8.57 ± 0.17	–
348.15 K, x1 = 0.02	4.04 ± 0.081	–
348.15 K, x1 = 0.0301	4.99 ± 0.1	–
348.15 K, x1 = 0.0499	6.7 ± 0.13	–
348.15 K, x1 = 0.0698	7.51 ± 0.15	–
348.15 K, x1 = 0.08	8.04 ± 0.16	–
348.15 K, x1 = 0.1	8.73 ± 0.17	–
348.15 K, x1 = 0.1101	8.84 ± 0.18	–
